One may read the pIC50 as the IC50 on a negative log10 scale, so that one unit is a factor of ten. Read a high pIC50 as a small IC50.

This is an account of results in patent publication US20150141411A1, “SUBSTITUTED 3,4-DIHYDRO-2H-PYRIDO[1,2-A]PYRAZINE-1,6-DIONE DERIVATIVES USEFUL FOR THE TREATMENT OF (INTER ALIA) ALZHEIMER'S DISEASE” (Janssen Pharmaceuticals, Inc., priority 2012, published 2015).

Assay [1] concerns the target T1, γ-secretase (Homo sapiens, UniProt P49768).
T1 construct: endogenous in cells; host or cells: SKNBE2 human neuroblastoma cells (carrying hAPP 695 wild type as substrate)
Put plainly: Screening for γ-secretase-modulating activity: Aβtotal in supernatant of SKNBE2 cells carrying hAPP 695 wild type (Alphalisa). Format: cell-based. Particulars: SKNBE2 human neuroblastoma cells carrying hAPP 695 wild type, overnight incubation, Aβtotal in cell supernatant. As to the method:
(§1) Screening was carried out using SKNBE2 human neuroblastoma cells carrying the hAPP 695—wild type, grown in Dulbecco's Modified Eagle's Medium/Nutrient mixture F-12 (DMEM/NUT-mix F-12) (HAM) provided by Invitrogen (cat no. 10371-029) containing 5% Serum/Fe supplemented with 1% non-essential amino acids, 1-glutamine 2 mM, Hepes 15 mM, penicillin 50 U/ml (units/ml) en streptomycin 50 μg/ml. Cells were grown to near confluency.
(§2) The screening was performed using a modification of the assay as described in Citron et al (1997) Nature Medicine 3: 67. Briefly, cells were plated in a 384-well plate at 10^4 cells/well in Ultraculture (Lonza, BE12-725F) supplemented with 1% glutamine (Invitrogen, 25030-024), 1% non-essential amino acid (NEAA), penicillin 50 U/ml en streptomycin 50 μg/ml in the presence of test compound at different test concentrations. The cell/compound mixture was incubated overnight at 37° C., 5% CO2. The next day the media were assayed by two sandwich immuno-assays, for Aβ42 and Aβ total.
(§3) Aβtotal and Aβ42 concentrations were quantified in the cell supernatant using the Aphalisa technology (Perkin Elmer). Alphalisa is a sandwich assay using biotinylated antibody attached to streptavidin coated donorbeads and antibody conjugated to acceptor beads. In the presence of antigen, the beads come into close proximity. The excitation of the donor beads provokes the release of singlet oxygen molecules that trigger a cascade of energy transfer in the acceptor beads, resulting in light emission. To quantify the amount of Aβ42 in the cell supernatant, monoclonal antibody specific to the C-terminus of Aβ42 (JRF/cAβ42/26) was coupled to the receptor beads and biotinylated antibody specific to the N-terminus of Aβ (JRF/AβN/25) was used to react with the donor beads. To quantify the amount of Aβtotal in the cell supernatant, monoclonal antibody specific to the N-terminus of Aβ (JRF/AβN/25) was coupled to the receptor beads and biotinylated antibody specific to the mid region of Aβ (biotinylated 4G8) was used to react with the donor beads.
(§4) To obtain the values reported in Table 3, the data are calculated as percentage of the maximum amount of amyloid Beta 42 measured in the absence of the test compound. The sigmoidal dose response curves were analyzed using non-linear regression analysis with percentage of the control plotted against the log concentration of the compound. A 4-parameter equation was used to determine the IC50.
A general note: Bead proximity is the source of the signal in Alpha formats.

For assay [2], the target named is T1, γ-secretase. Put plainly: Screening for γ-secretase-modulating activity: Aβ42 in supernatant of SKNBE2 cells carrying hAPP 695 wild type (Alphalisa). Format: cell-based. Particulars: SKNBE2 human neuroblastoma cells carrying hAPP 695 wild type, overnight incubation, Aβ42 in cell supernatant. As to the method:
as §1, §2, §3, §4

pIC50: −log10 of the molar value.

With `CCn1cc(C(C)N2C(=O)c3ccc(-n4cnc(C)c4)c(=O)n3CC2C)c2cc(Cl)ccc21` (single isomer, unassigned) [compound 249], the pIC50 against γ-secretase [1] was 5.10; against γ-secretase [2], 6.31.

`Cc1ccc2cc(CN3CCn4c(ccc(-n5cnc(C)c5)c4=O)C3=O)ccc2c1` [compound 94]: the pIC50 at γ-secretase [1] is < 5.00; at γ-secretase [2] it was 6.31.

Turning to `Cc1cn(-c2ccc3n(c2=O)C[C@@H](C)N(Cc2c(C)[nH]c4ccc(C(F)(F)F)cc24)C3=O)cn1` [compound 180], the pIC50 against γ-secretase [1] was 5.18; against γ-secretase [2] it was 8.00.

Consider `CCn1cc(CN2C(=O)c3ccc(-n4cnc(C)c4)c(=O)n3C[C@H]2C)c2cc(C)ccc21` [compound 250], for which the pIC50 on γ-secretase [1] was < 5.00; on γ-secretase [2] it was 7.30.

As for `CCC(c1cc(OC)cc(C(F)(F)F)c1)N1C(=O)c2ccc(-n3cnc(C)c3)c(=O)n2C[C@H]1C` (single isomer, unassigned) [compound 142], the pIC50 against γ-secretase [1] is < 5.00; at γ-secretase [2] it was 6.68.

Regarding `Cc1cc(CN2CCn3c(ccc(-n4cnc(C)c4)c3=O)C2=O)cc(C(F)(F)F)c1` [compound 60], the pIC50 at γ-secretase [1] is < 5.00; against γ-secretase [2], 6.18.

On to `Cc1cn(-c2ccc3n(c2=O)C[C@@H](C)N(C(C)c2cn(C4CC4)c4cc(F)c(Cl)cc24)C3=O)cn1` (single isomer, unassigned) [compound 248], for which the results for the pIC50 against γ-secretase [1] and at γ-secretase [2] were 6.00 and 8.10, respectively.

With `COc1cc(C)c(CN2C(=O)c3ccc(-n4cnc(C)c4)c(=O)n3C[C@H]2C)cc1C(C)C` [compound 77], the pIC50 against γ-secretase [1] was < 5.00; at γ-secretase [2], 6.72.

Consider `Cc1cn(-c2ccc3n(c2=O)CCN(CCCC(C)(C)C)C3=O)cn1` [compound 15], for which the pIC50 at γ-secretase [1] was < 5.00; at γ-secretase [2], 5.64.

Turning to `CNC[C@@H]1Cn2c(ccc(-n3cnc(C)c3)c2=O)C(=O)N1Cc1cc(C(F)(F)F)cc(C(F)(F)F)c1` [compound 49], the pIC50 against γ-secretase [1] was < 5.00; on γ-secretase [2] it was 5.47.

Take `COc1cc(C(C)N2C(=O)c3ccc(-n4cnc(C)c4)c(=O)n3C[C@H]2C)cc(C(F)(F)F)c1` (single isomer, unassigned) [compound 149]: the pIC50 on γ-secretase [1] is < 5.00; against γ-secretase [2] it was 6.52.

Take `Cc1cn(-c2ccc3n(c2=O)CC(C(C)O)N(Cc2cc(C(F)(F)F)cc(C(F)(F)F)c2)C3=O)cn1` (stereo not shown) [compound 167]: the pIC50 on γ-secretase [1] is < 5.00; at γ-secretase [2], 5.92.

Regarding `Cc1cn(-c2ccc3n(c2=O)C[C@@H](C)N(C(C)c2cccc(OC(F)(F)F)c2)C3=O)cn1` (single isomer, unassigned) [compound 147], the pIC50 against γ-secretase [1] is < 5.00; at γ-secretase [2] it was 6.48.

Regarding `CCn1cc(C(C)N2C(=O)c3ccc(-n4cnc(C)c4)c(=O)n3C[C@H]2C)c2ccc(C(F)(F)F)cc21` (single isomer, unassigned) [compound 235], the pIC50 was 5.22 against γ-secretase [1] and 8.00 against γ-secretase [2].

For the molecule `CCn1c(C)c(CN2C(=O)c3ccc(-n4cnc(C)c4)c(=O)n3C[C@H]2C)c2cc(C(F)(F)F)ccc21` [compound 182], the values for the negative-log IC50 (pIC50) against γ-secretase [1] and on γ-secretase [2] were 5.60 and 8.00, respectively.

Take `Cc1cn(-c2ccc3n(c2=O)CC(C)N(C(C)c2c[nH]c4c(F)cc(Cl)cc24)C3=O)cn1` (single isomer, unassigned) [compound 218]: the pIC50 is 5.42 on γ-secretase [1] and 6.85 on γ-secretase [2].

Consider `Cc1cn(-c2ccc3n(c2=O)CC(C)N(Cc2cn(C)c4cc(Br)ccc24)C3=O)cn1` (stereo not shown) [compound 177], for which the pIC50 was < 5.00 against γ-secretase [1] and 7.40 against γ-secretase [2].

In the case of `Cc1cn(-c2ccc3n(c2=O)CC(C)N(Cc2c(C)n(C)c4ccc(C(F)(F)F)cc24)C3=O)cn1` (stereo not shown) [compound 181], the pIC50 against γ-secretase [1] was 5.34; at γ-secretase [2], 8.00.

Regarding `Cc1cn(-c2ccc3n(c2=O)CC(C)N(C(C)c2cn(C)c4ccc(C(F)(F)F)cc24)C3=O)cn1` (single isomer, unassigned) [compound 214], the results for the pIC50 on γ-secretase [1] and on γ-secretase [2] were 5.19 and 6.62, respectively.

`Cc1cn(-c2ccc3n(c2=O)C[C@@H](C)N(Cc2c[nH]c4ccc(OC(F)(F)F)cc24)C3=O)cn1` [compound 252]: the pIC50 at γ-secretase [1] was 5.30; against γ-secretase [2] it was 8.00.

For `Cc1cn(-c2ccc3n(c2=O)CC(C)N(C2Cc4ccccc4C2)C3=O)cn1` (single isomer, unassigned) [compound 206], the pIC50 against γ-secretase [1] and at γ-secretase [2] was < 5.00 in each case.

For the molecule `Cc1cn(-c2ccc3n(c2=O)CC(C)N(C(C)c2cn(C(C)C)c4cc(F)c(Cl)cc24)C3=O)cn1` (single isomer, unassigned) [compound 193], the pIC50 on γ-secretase [1] is < 5.00; against γ-secretase [2], 6.70.

Consider `Cc1cn(-c2ccc3n(c2=O)C[C@@H](CO)N(Cc2cc(C(F)(F)F)cc(C(F)(F)F)c2)C3=O)cn1` [compound 45], for which the pIC50 at γ-secretase [1] was < 5.00; on γ-secretase [2], 6.27.

Consider `Cc1cn(-c2ccc3n(c2=O)C[C@@H](C)N(CCc2ccccc2)C3=O)cn1` [compound 176], for which the pIC50 against γ-secretase [1] was < 5.00; at γ-secretase [2], 5.81.

Turning to `Cc1cn(-c2ccc3n(c2=O)CC(C)N(Cc2c[nH]c4cc(Cl)ccc24)C3=O)cn1` (stereo not shown) [compound 179], the figures for the pIC50 against γ-secretase [1] and at γ-secretase [2] were < 5.00 and 7.15, respectively.

With `Cc1cn(-c2ccc3n(c2=O)C[C@@H](C)N(CCc2cccc(Cl)c2Cl)C3=O)cn1` [compound 231], the pIC50 is < 5.00 on γ-secretase [1] and 6.59 on γ-secretase [2].

On to `Cc1cn(-c2c(C)cc3n(c2=O)C[C@@H](C)N(Cc2cc(C(F)(F)F)cc(C(F)(F)F)c2)C3=O)cn1` [compound 161], for which the pIC50 was < 5.00 against γ-secretase [1] and 6.10 at γ-secretase [2].

For `Cc1cn(-c2ccc3n(c2=O)C[C@@H](C)N(Cc2c[nH]c4c(I)cccc24)C3=O)cn1` [compound 197], the pIC50 is < 5.00 on γ-secretase [1] and 7.22 against γ-secretase [2].

In the case of `CCc1cn(-c2ccc3n(c2=O)CC(CN(C)C)N(Cc2cc(C(F)(F)F)cc(C(F)(F)F)c2)C3=O)cn1` (stereo not shown) [compound 8], the results for the pIC50 on γ-secretase [1] and against γ-secretase [2] were < 5.00 and 6.03, respectively.

For the molecule `Cc1cn(-c2ccc3n(c2=O)C[C@@H](C)N(C(C)c2cccc(OC(F)(F)F)c2)C3=O)cn1` (single isomer, unassigned) [compound 146], the figures for the pIC50 on γ-secretase [1] and against γ-secretase [2] were < 5.00 and 6.82, respectively.

Turning to `Cc1cn(-c2ccc3n(c2=O)CCN(Cc2cccc(-c4ccccc4)c2)C3=O)c(C)n1` [compound 87], the figures for the pIC50 at γ-secretase [1] and against γ-secretase [2] were < 5.00 and 5.11, respectively.

Consider `CCOc1cc(C(C)N2C(=O)c3ccc(-n4cnc(C)c4)c(=O)n3C[C@H]2C)cc(C(F)(F)F)c1` (single isomer, unassigned) [compound 144], for which the pIC50 against γ-secretase [1] was < 5.00; against γ-secretase [2], 6.89.

On to `Cc1ccc2c(c1)c(CN1C(=O)c3ccc(-n4cnc(C)c4)c(=O)n3C[C@H]1C)cn2CC(F)(F)F` [compound 262], for which the pIC50 was < 5.00 against γ-secretase [1] and 7.70 against γ-secretase [2].

As for `COCC(c1cc(C(F)(F)F)cc(C(F)(F)F)c1)N1CCn2c(ccc(-n3cnc(C)c3)c2=O)C1=O` (stereo not shown) [compound 54], the pIC50 at γ-secretase [1] was < 5.00; against γ-secretase [2], 5.90.

`O=C1c2ccc(-n3ccnc3)c(=O)n2CCN1Cc1cccc(-c2ccccc2)c1` [compound 109]: the pIC50 is < 5.00 against γ-secretase [1] and 5.68 at γ-secretase [2].

In the case of `Cc1cn(-c2cc(Cl)c3n(c2=O)C[C@@H](C)N(Cc2cc(C(F)(F)F)cc(C(F)(F)F)c2)C3=O)cn1` [compound 159], the pIC50 is < 5.00 at γ-secretase [1] and 6.55 against γ-secretase [2].

`Cc1cn(-c2ccc3n(c2=O)CC(C)N(C(C)c2cn(C)c4c(F)cc(Cl)cc24)C3=O)cn1` (single isomer, unassigned) [compound 224]: the pIC50 on γ-secretase [1] is 5.73; against γ-secretase [2] it was 8.00.

In the case of `Cc1cn(-c2ccc3n(c2=O)CCN(Cc2cccc(C(F)(F)F)c2Cl)C3=O)cn1` [compound 64], the pIC50 against γ-secretase [1] is < 5.00; on γ-secretase [2], 6.16.

As for `CCn1cc(CN2C(=O)c3ccc(-n4cnc(C)c4)c(=O)n3CC2C)c2ccc(C(F)(F)F)cc21` (stereo not shown) [compound 225], the pIC50 on γ-secretase [1] is < 5.00; against γ-secretase [2], 7.70.

As to `Cc1cn(-c2ccc3n(c2=O)CCN(c2ccc(F)cc2C)C3=O)cn1` [compound 41], the pIC50 on γ-secretase [1] and against γ-secretase [2] was < 5.00 throughout.

For `COc1cccc(CN2CCn3c(ccc(-n4cnc(C)c4)c3=O)C2=O)c1` [compound 66], the pIC50 against γ-secretase [1] was < 5.00; against γ-secretase [2], 5.41.
